The values that follow are results of earlier work, collected in patent US20250160636A1, “Mitigating Ocular Toxicity” (GlaxoSmithKline Intellectual Property Development Limited, priority 2022, published 2025).

For the data set the following is noted: for Vision disorder: n = 255, photopsia.

Like-named read-outs stand apart in the source and are kept apart here.

As for `CN(C)C/C=C/C(=O)Nc1cc2c(Nc3ccc(F)c(Cl)c3)ncnc2cc1O[C@H]1CCOC1` [Afatinib], under “n = 229”, the Conjunctivitis is given as 11%. For the same compound, for the setting “n = 3865 patients”, the Keratitis is listed as 0.8%. For the same compound, the “grade III event” value (number of events, n = 3865 patients) is 1.

`CC(C)C[C@H](NC(=O)[C@H](Cc1ccccc1)NC(=O)c1cnccn1)B(O)O` [Bortezomib]: the “Case reports associated with” value (case reports) was “Case reports associated with eyelid chalazia”. In addition, the “Label mentions (ocular toxicity issues)” value (label) is reported as “Label mentions diplopia, blurred vision, conjunctival infection, irritation”.

Take `Cc1cc(Nc2ncc(Cl)c(Nc3ccccc3S(=O)(=O)C(C)C)n2)c(OC(C)C)cc1C1CCNCC1` [Ceritinib]: the Vision disorder result (comprised of vision impairment, blurred vision, accommodation disorder, presbyopia, or reduced visual acuity) is recorded as “Vision disorder 9% (comprised of vision impairment, blurred vision, photopsia,”.

As to `C[C@@H](Oc1cc(-c2cnn(C3CCNCC3)c2)cnc1N)c1c(Cl)ccc(F)c1Cl` [Crizotinib], the Vision disorder entry (includes diplopia, photophobia, vision blurred, visual field defect, visual impairment, vitreous floaters, visual brightness, and visual acuity reduced) was “Vision disorder 64% (Includes diplopia, photopsia, photophobia, vision blurred,”.

In the case of `CC(C)(C)c1nc(-c2cccc(NS(=O)(=O)c3c(F)cccc3F)c2F)c(-c2ccnc(N)n2)s1` [Dabrafenib], the “Can cause (ocular toxicity issue)” value (in vivo) is “cystoid macula edema”. Besides, for the setting “n = 586”, the Uveitis/Iritis is listed as 1%.

For `Cc1nc(Nc2ncc(C(=O)Nc3c(C)cccc3Cl)s2)cc(N2CCN(CCO)CC2)n1` [Dasatinib], the Conjunctivitis (cohort not given) is on record as 0.1-1%. Moreover, the “Visual disorder (visual disturbance, vision blurred, decreased visual acuity) or dry eye” value (in vivo) is listed as 1-10%.

In the case of `C#Cc1cccc(Nc2ncnc3cc(OCCOC)c(OCCOC)cc23)c1` [Erlotinib], the “Reported Conjunctivitis” value (n = 84) was 18%. For the same compound, the Conjunctivitis (n = 485) was 12%. For the same compound, the “Keratoconjunctivitis Sicca” value (n = 485) is “n = 485 and Keratoconjunctivitis Sicca 12% n = 485. Mentions of corneal”. In addition, the “Conjunctivitis Grade III” value (number of events, n = 485) is recorded as 1. Also, the “pooled incidence of ocular disorders” value (one pancreatic cancer study) is reported as 12.8% and the “pooled incidence of ocular disorders” value (three lung cancer studies) is 17.8%.

Regarding `COc1cc2ncnc(Nc3ccc(F)c(Cl)c3)c2cc1OCCCN1CCOCC1` [Gefitinib], the “Mentions of (ocular toxicity issues)” value (full list, wrapped over lines: eye irritation, eye pain, corneal erosion/ulcer, aberrant eyelash growth, corneal membrane sloughing, and ocular ischemia/hemorrhage) is on record as “Mentions of eye irritation, eye pain, corneal erosion/ulcer, aberrant eyelash”.

`Cc1cn(-c2cc(NC(=O)c3ccc(C)c(Nc4nccc(-c5cccnc5)n4)c3)cc(C(F)(F)F)c2)cn1` [Nilotinib]: where the note is “in vivo”, the “Frequency class of vision impairment, vision blurred, visual acuity reduced, photopsia, eye irritation” value is listed as “Uncommon: vision impairment, vision blurred, visual acuity reduced, photopsia,”.

Turning to `CC(=O)Nc1cccc(-n2c(=O)n(C3CC3)c(=O)c3c(Nc4ccc(I)cc4F)n(C)c(=O)c(C)c32)c1` [Trametinib], where the note is “4/1,749”, the “Incidence of Retinal Veinous Occlusion” value was “halo. Incidence of Retinal Veinous Occlusion was 0.2% (4/1,749)”. Also, the “Incidence of Retinal Pigment Epithelial Detachment” value (14/1,749) was “Incidence of Retinal Pigment Epithelial Detachment was 0.8% (14/1,749)”. The “Mentions (ocular toxicity issues)” value (full list, wrapped over lines: blurry vision, dry eye, transient blindness, eye floaters, and visual halo) is “Mentions blurry vision, dry eye, transient blindness, eye floaters, and visual”.

With `COc1cc2c(Nc3ccc(Br)cc3F)ncnc2cc1OCC1CCN(C)CC1` [Vandetanib], the “Blurry vision (corneal opacities)” value (No cohort information) is reported as “Blurry vision (corneal opacities) 9%. No cohort information”.

For `CCCS(=O)(=O)Nc1ccc(F)c(C(=O)c2c[nH]c3ncc(-c4ccc(Cl)cc4)cc23)c1F` [Vemurafenib], under “in vivo”, the “Mentions (ocular toxicity issues)” value was “Mentions retinal vein occlusion, uveitis, blurry vision, iritis, and photophobia”.

For Panitimumab, for the setting “in 463 patients”, the Conjunctivitis is listed as 4%; the Eye/eyelid irritation was 1%; the increased lacrimation entry is on record as “increased lacrimation (2%), in 463 patients”; the ocular hyperemia is recorded as 3%.

Take Pertuzumab: the “Mentions (ocular toxicity issues)” value (in vivo) is “Mentions increased lacrimation”.

Consider Rituximab, for which, under “in vivo”, the “Mentions (ocular toxicity issues)” value is “Mentions uveitis and optic neuritis”.
